Tested on: ulcer
Experiment: Anti-ulcer test (restraint and water immersion ulcer in rats, i.p.)
Assay type: in vivo, Male Wistar rats
Conditions: Rattus norvegicus, ip; 50 mg/kg i.p.; read-out: % Inhibition of Ulcer
Method in brief: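 Male Wistar rats (~150 g), fasted 24 h, dosed i.p. with compound in physiological saline; 1 h later restrained and immersed to xiphisternum in 21 °C water for 6 h. Stomachs examined microscopically, ulcers scored 0–3, and percent inhibition calculated.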

Compound | inhibition in vivo at 50 mg/kg [%]
COc1cccc2c1C(=O)OC(C(CC(C)C)NC(=O)C(O)C1OC(=O)CC1NCC(Cl)(Cl)Cl)C2 (centres unmarked) [IIIa-22-7] | 78
CCCCCCCCCCCCOc1cccc2c1C(=O)OC(C(CC(C)C)NC(=O)C(O)C1OC(=O)CC1NCC)C2 (centres unmarked) [IIIa-22-9] | 83
CCNC1CC(=O)OC1C(O)C(=O)NC(CC(C)C)C1Cc2cccc(OCC(C)C)c2C(=O)O1 (centres unmarked) [IIIa-22-10] | 83
CCCCCCCCOc1cccc2c1C(=O)OC(C(CC(C)C)NC(=O)C(O)C1OC(=O)CC1NCC)C2 (centres unmarked) [IIIa-22-11] | 83
CCCCCCCCOc1cccc2c1C(=O)OC(C(CC(C)C)NC(=O)C(O)C1OC(=O)CC1NCCCCCCC)C2 (centres unmarked) [IIIa-22-12] | 72
CCOc1cccc2c1C(=O)OC(C(CC(C)C)NC(=O)C(O)C1OC(=O)CC1NCC(Cl)(Cl)Cl)C2 (centres unmarked) [IIIa-22-13] | 78
CCOc1cccc2c1C(=O)OC(C(CC(C)C)NC(=O)C(O)C1OC(=O)CC1NCCCCBr)C2 (centres unmarked) [IIIa-22-25] | 89
CCOc1cccc2c1C(=O)OC(C(CC(C)C)NC(=O)C(O)C1OC(=O)CC1NCCSC)C2 (centres unmarked) [IIIa-22-39] | 94
CCCCCSCCNC1CC(=O)OC1C(O)C(=O)NC(CC(C)C)C1Cc2cccc(OCC)c2C(=O)O1 (centres unmarked) [IIIa-22-40] | 94
C#CCNC1CC(=O)OC1C(O)C(=O)NC(CC(C)C)C1Cc2cccc(OCC)c2C(=O)O1 (centres unmarked) [IIIa-22-47] | 94
CCOc1cccc2c1C(=O)OC(C(CC(C)C)NC(=O)C(O)C1OC(=O)CC1NCCCCCO)C2 (centres unmarked) [IIIa-22-53] | 78
CCOc1cccc2c1C(=O)OC(C(CC(C)C)NC(=O)C(O)C1OC(=O)CC1NCC=C(C)C)C2 (centres unmarked) [IIIa-22-72] | 94
CCCCNC1CC(=O)OC1C(O)C(=O)NC(CC(C)C)C1Cc2cccc(OCCCC)c2C(=O)O1 (centres unmarked) [IIIa-22-76] | 94
CCCCNC1CC(=O)OC1C(O)C(=O)NC(CC(C)C)C1Cc2cccc(OCCC(C)C)c2C(=O)O1 (centres unmarked) [IIIa-22-77] | 94
CCCCCCCCCCCCCCCCCCOc1cccc2c1C(=O)OC(C(CC(C)C)NC(=O)C(O)C1OC(=O)CC1NCCCC)C2 (centres unmarked) [IIIa-22-78] | 72
CCCCNC1CC(=O)OC1C(O)C(=O)NC(CC(C)C)C1Cc2cccc(OCCCl)c2C(=O)O1 (centres unmarked) [IIIa-22-79] | 94
CCCCNC1CC(=O)OC1C(O)C(=O)NC(CC(C)C)C1Cc2cccc(OCCCBr)c2C(=O)O1 (centres unmarked) [IIIa-22-92] | 94
CCCCCCCCCCCCCCCCCCNC1CC(=O)OC1C(OC(C)=O)C(=O)NC(CC(C)C)C1Cc2cccc(OCC)c2C(=O)O1 (centres unmarked) [IIIa-23-3] | 44
CCNC1CC(=O)OC1C(OC)C(=O)NC(CC(C)C)C1Cc2cccc(OCC)c2C(=O)O1 (centres unmarked) [IIIa-24-1] | 56
CCNC1CC(=O)OC1C(OCC)C(=O)NC(CC(C)C)C1Cc2cccc(OCC)c2C(=O)O1 (centres unmarked) [IIIa-24-2] | 56
CCCCCCCCCCCCCCCCCCNC1CC(=O)OC1C(OCC)C(=O)NC(CC(C)C)C1Cc2cccc(OCCCCCCC)c2C(=O)O1 (centres unmarked) [IIIa-24-4] | 44
CCCCNC1CC(=O)OC1C(OCCCC)C(=O)NC(CC(C)C)C1Cc2cccc(OC)c2C(=O)O1 (centres unmarked) [IIIa-24-10] | 56
CCCCOc1cccc2c1C(=O)OC(C(CC(C)C)NC(=O)C(OC)C1OC(=O)CC1NCC)C2 (centres unmarked) [IIIa-24-16] | 56

Compound | inhibition in vivo at 50 mg/kg [%]
CCCCOC(C(=O)NC(CC(C)C)C1Cc2cccc(O)c2C(=O)O1)C1OC(=O)CC1NCC (centres unmarked) [IIIa-25-1] | 66
CCCCCCCCCCCCCCCCCCNC1CC(=O)OC1C(OCCCC)C(=O)NC(CC(C)C)C1Cc2cccc(O)c2C(=O)O1 (centres unmarked) [IIIa-25-3] | 56
CCNC1CC(=O)OC1C(OC)C(=O)NC(CC(C)C)C1Cc2cccc(O)c2C(=O)O1 (centres unmarked) [IIIa-25-9] | 66
COC(C(=O)NC(CC(C)C)C1Cc2cccc(O)c2C(=O)O1)C1OC(=O)CC1NCC(Cl)(Cl)Cl (centres unmarked) [IIIa-25-10] | 66
CCCCOC(C(=O)NC(CC(C)C)C1Cc2cccc(OC(C)=O)c2C(=O)O1)C1OC(=O)CC1NCC (centres unmarked) [IIIa-26-1] | 66
CCCCCCCCCCCCCCCCCCNC1CC(=O)OC1C(OCCCC)C(=O)NC(CC(C)C)C1Cc2cccc(OC(C)=O)c2C(=O)O1 (centres unmarked) [IIIa-26-3] | 44
CCCCCCCCCCCCCCCCCC(=O)Oc1cccc2c1C(=O)OC(C(CC(C)C)NC(=O)C(OCCCC)C1OC(=O)CC1NCC)C2 (centres unmarked) [IIIa-26-5] | 56
CCNC1CC(=O)OC1C(OC)C(=O)NC(CC(C)C)C1Cc2cccc(OC(=O)C(C)C)c2C(=O)O1 (centres unmarked) [IIIa-26-9] | 56
CNC1CC(=O)OC1C(OC(C)=O)C(=O)NC(CC(C)C)C1Cc2cccc(O)c2C(=O)O1 (centres unmarked) [IIIa-28-1] | 66
CNC1CC(=O)OC1C(OC(=O)CC(C)C)C(=O)NC(CC(C)C)C1Cc2cccc(O)c2C(=O)O1 (centres unmarked) [IIIa-28-2] | 66
CNC1CC(=O)OC1C(OC(=O)C(Cl)(Cl)Cl)C(=O)NC(CC(C)C)C1Cc2cccc(O)c2C(=O)O1 (centres unmarked) [IIIa-28-3] | 66
CNC1CC(=O)OC1C(OC(C)=O)C(=O)NC(CC(C)C)C1Cc2cccc(OC(C)=O)c2C(=O)O1 (centres unmarked) [IIIa-29-1] | 56
CNC1CC(=O)OC1C(O)C(=O)NC(CC(C)C)C1Cc2cccc(OC(C)=O)c2C(=O)O1 (centres unmarked) [IIIa-30-1] | 78
CNC1CC(=O)OC1C(O)C(=O)NC(CC(C)C)C1Cc2cccc(OC)c2C(=O)O1 (centres unmarked) [IIIa-31-1] | 94
CCOc1cccc2c1C(=O)OC(C(CC(C)C)NC(=O)C(O)C1OC(=O)CC1NC)C2 (centres unmarked) [IIIa-31-2] | 94
CCCCCCCCCCCCCCCCCCOc1cccc2c1C(=O)OC(C(CC(C)C)NC(=O)C(O)C1OC(=O)CC1NC)C2 (centres unmarked) [IIIa-31-3] | 78
CNC1CC(=O)OC1C(O)C(=O)NC(CC(C)C)C1Cc2cccc(OCCC(C)C)c2C(=O)O1 (centres unmarked) [IIIa-31-4] | 89
CCOc1cccc2c1C(=O)OC(C(CC(C)C)NC(=O)C(OC(C)=O)C1OC(=O)CC1NC)C2 (centres unmarked) [IIIa-32-1] | 56
CCOc1cccc2c1C(=O)OC(C(CC(C)C)NC(=O)C(OC(=O)C(C)C)C1OC(=O)CC1NC)C2 (centres unmarked) [IIIa-32-2] | 44
CCCCOC(C(=O)NC(CC(C)C)C1Cc2cccc(OC)c2C(=O)O1)C1OC(=O)CC1NC (centres unmarked) [IIIa-33-1] | 56
CCCCOc1cccc2c1C(=O)OC(C(CC(C)C)NC(=O)C(OCCCC)C1OC(=O)CC1NC)C2 (centres unmarked) [IIIa-33-3] | 56
CNC1CC(=O)OC1C(OC)C(=O)NC(CC(C)C)C1Cc2cccc(O)c2C(=O)O1 (centres unmarked) [IIIa-34-1] | 66
CNC1CC(=O)OC1C(OC)C(=O)NC(CC(C)C)C1Cc2cccc(OC(C)=O)c2C(=O)O1 (centres unmarked) [IIIa-35-1] | 56

Compound | inhibition in vivo at 50 mg/kg [%]
CC(=O)OC(C(=O)NC(CC(C)C)C1Cc2cccc(O)c2C(=O)O1)C1C=CC(=O)O1 (centres unmarked) [IVa-1-1] | 44
CCC(=O)OC(C(=O)NC(CC(C)C)C1Cc2cccc(O)c2C(=O)O1)C1C=CC(=O)O1 (centres unmarked) [IVa-1-2] | 44
CCCC(=O)OC(C(=O)NC(CC(C)C)C1Cc2cccc(O)c2C(=O)O1)C1C=CC(=O)O1 (centres unmarked) [IVa-1-3] | 44
CC(C)CC(NC(=O)C(OC(=O)C(C)C)C1C=CC(=O)O1)C1Cc2cccc(O)c2C(=O)O1 (centres unmarked) [IVa-1-4] | 44
CC(C)CC(=O)OC(C(=O)NC(CC(C)C)C1Cc2cccc(O)c2C(=O)O1)C1C=CC(=O)O1 (centres unmarked) [IVa-1-5] | 44
CCCCC(=O)OC(C(=O)NC(CC(C)C)C1Cc2cccc(O)c2C(=O)O1)C1C=CC(=O)O1 (centres unmarked) [IVa-1-6] | 44
CCCCCC(=O)OC(C(=O)NC(CC(C)C)C1Cc2cccc(O)c2C(=O)O1)C1C=CC(=O)O1 (centres unmarked) [IVa-1-7] | 44
CCCCCCC(=O)OC(C(=O)NC(CC(C)C)C1Cc2cccc(O)c2C(=O)O1)C1C=CC(=O)O1 (centres unmarked) [IVa-1-8] | 33
CCCCCCCC(=O)OC(C(=O)NC(CC(C)C)C1Cc2cccc(O)c2C(=O)O1)C1C=CC(=O)O1 (centres unmarked) [IVa-1-9] | 33
CCCCCCCCCCCC(=O)OC(C(=O)NC(CC(C)C)C1Cc2cccc(O)c2C(=O)O1)C1C=CC(=O)O1 (centres unmarked) [IVa-1-10] | 33
CCCCCCCCCCCCCCCCCC(=O)OC(C(=O)NC(CC(C)C)C1Cc2cccc(O)c2C(=O)O1)C1C=CC(=O)O1 (centres unmarked) [IVa-1-11] | 33
CC(C)CC(NC(=O)C(OC(=O)C(Cl)(Cl)Cl)C1C=CC(=O)O1)C1Cc2cccc(O)c2C(=O)O1 (centres unmarked) [IVa-1-12] | 44
CCCCC(=O)Oc1cccc2c1C(=O)OC(C(CC(C)C)NC(=O)C(O)C1C=CC(=O)O1)C2 (centres unmarked) [IVa-3-4] | 33
CCCCCC(=O)Oc1cccc2c1C(=O)OC(C(CC(C)C)NC(=O)C(O)C1C=CC(=O)O1)C2 (centres unmarked) [IVa-3-5] | 33
CCCCCCC(=O)Oc1cccc2c1C(=O)OC(C(CC(C)C)NC(=O)C(O)C1C=CC(=O)O1)C2 (centres unmarked) [IVa-3-6] | 33
CCCCCCCC(=O)Oc1cccc2c1C(=O)OC(C(CC(C)C)NC(=O)C(O)C1C=CC(=O)O1)C2 (centres unmarked) [IVa-3-7] | 33
CCCCCCCCCCCC(=O)Oc1cccc2c1C(=O)OC(C(CC(C)C)NC(=O)C(O)C1C=CC(=O)O1)C2 (centres unmarked) [IVa-3-8] | 33
CCCCCCCCCCCCCCCCCC(=O)Oc1cccc2c1C(=O)OC(C(CC(C)C)NC(=O)C(O)C1C=CC(=O)O1)C2 (centres unmarked) [IVa-3-9] | 33
CC(C)CC(NC(=O)C(O)C1C=CC(=O)O1)C1Cc2cccc(OC(=O)C(C)C)c2C(=O)O1 (centres unmarked) [IVa-3-10] | 44
CC(C)CC(=O)Oc1cccc2c1C(=O)OC(C(CC(C)C)NC(=O)C(O)C1C=CC(=O)O1)C2 (centres unmarked) [IVa-3-11] | 44
CCCCCCCCC=CCCCCCCCC(=O)Oc1cccc2c1C(=O)OC(C(CC(C)C)NC(=O)C(O)C1C=CC(=O)O1)C2 (centres unmarked) [IVa-3-12] | 33
CC(C)CC(NC(=O)C(O)C1C=CC(=O)O1)C1Cc2cccc(OC(=O)C(Cl)(Cl)Cl)c2C(=O)O1 (centres unmarked) [IVa-3-13] | 44
